This passage reports inhibition results from patent US10435399B2, “HDAC6 inhibitory heterocyclic compound” (TAKEDA PHARMACEUTICAL COMPANY LIMITED, priority 2017, dated 2019).

The target in this experiment is T1, HDAC6 enzyme (Homo sapiens, UniProt Q9UBN7).
T1 construct: transducing full length HDAC6 gene into Sf-9 insect cells; GST; purchased SignalChem; host or cells: Sf-9 insect cells
T1 sequence (Q9UBN7 1-1215): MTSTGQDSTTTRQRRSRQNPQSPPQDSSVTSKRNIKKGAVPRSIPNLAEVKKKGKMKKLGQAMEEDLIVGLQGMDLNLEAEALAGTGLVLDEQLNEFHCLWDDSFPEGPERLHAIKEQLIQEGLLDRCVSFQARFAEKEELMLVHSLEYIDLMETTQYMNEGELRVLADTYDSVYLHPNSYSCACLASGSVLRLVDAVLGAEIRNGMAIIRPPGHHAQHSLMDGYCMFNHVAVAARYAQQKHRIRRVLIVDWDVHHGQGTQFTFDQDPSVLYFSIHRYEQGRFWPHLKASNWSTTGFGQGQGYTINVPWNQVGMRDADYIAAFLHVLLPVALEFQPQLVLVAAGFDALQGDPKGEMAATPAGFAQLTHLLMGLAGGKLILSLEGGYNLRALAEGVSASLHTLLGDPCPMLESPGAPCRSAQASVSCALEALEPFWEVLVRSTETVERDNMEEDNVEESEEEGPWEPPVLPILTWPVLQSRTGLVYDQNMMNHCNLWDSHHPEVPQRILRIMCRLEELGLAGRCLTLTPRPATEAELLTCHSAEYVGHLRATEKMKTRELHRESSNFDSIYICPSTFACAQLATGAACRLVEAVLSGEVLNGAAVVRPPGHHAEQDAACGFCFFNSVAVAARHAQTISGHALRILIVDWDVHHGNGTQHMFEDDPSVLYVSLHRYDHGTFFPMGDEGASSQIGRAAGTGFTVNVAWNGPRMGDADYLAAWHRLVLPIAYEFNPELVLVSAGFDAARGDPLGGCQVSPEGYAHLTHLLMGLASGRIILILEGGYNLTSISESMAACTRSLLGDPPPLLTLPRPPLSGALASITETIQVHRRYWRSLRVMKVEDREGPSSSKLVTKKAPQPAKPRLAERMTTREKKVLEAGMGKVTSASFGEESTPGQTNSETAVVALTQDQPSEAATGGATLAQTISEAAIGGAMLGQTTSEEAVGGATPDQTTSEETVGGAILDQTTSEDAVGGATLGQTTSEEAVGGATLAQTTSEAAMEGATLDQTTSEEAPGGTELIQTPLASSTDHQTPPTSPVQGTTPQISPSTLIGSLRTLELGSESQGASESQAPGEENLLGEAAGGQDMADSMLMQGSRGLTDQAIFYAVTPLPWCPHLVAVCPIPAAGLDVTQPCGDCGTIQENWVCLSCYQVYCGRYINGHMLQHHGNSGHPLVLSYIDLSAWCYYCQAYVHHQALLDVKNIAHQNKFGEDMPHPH
Kind of experiment: HDAC6 enzyme inhibitory activity (HDAC-Glo I/II Assay kit). It is filed as biochemical. Conditions: 10 μM; wells without enzyme = 100% inhibition; read-out: HDAC6 inhibitory rate (%) (10 μM). In a few lines:
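Inhibition is calculated as relative activity, taking luminescence in enzyme-free wells as complete inhibition. The enzyme, full-length and GST-purified after Sf-9 expression, was exposed to compound for 60 min at room temperature before a 20 min HDAC-Glo reaction.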

For the compound `O=C1c2cc(-c3nnc(C(F)F)o3)ccc2CN1[C@@H]1CCCC[C@@H]1NC(=O)C(F)(F)C(F)(F)F` [Example 261, N-((1S,2R)-2-(6-(5-(difluoro-methyl)-1,3,4-oxadiazol-2-yl)-1-oxo-1,3-dihydro-2H-isoindol-2-yl)cyclohexyl)-2,2,3,3,3-pentafluoropropan-amide], the inhibition at 10 µM stood at 99%.
`COC(=O)N[C@H]1CCCC[C@H]1N1Cc2ccc(-c3nnc(C(F)F)o3)cc2C1=O` [Example 262, methyl ((1S,2R)-2-(6-(5-(difluoromethyl)-1,3,4-oxadiazol-2-yl)-1-oxo-1,3-dihydro-2H-isoindol-2-yl)cyclohexyl)carbamate]: the inhibition at 10 µM stood at 98%.
`CC(C)(C)OC(=O)N1CCC[C@@H]1CN1Cc2c(F)cc(-c3nnc(C(F)F)o3)cc2C1=O` [Example 263, tert-butyl (2R)-2-((6-(5-(difluoromethyl)-1,3,4-oxadiazol-2-yl)-4-fluoro-1-oxo-1,3-dihydro-2H-isoindol-2-yl)methyl)-pyrrolidine-1-carboxylate]: the inhibition at 10 µM is 99%.
Under `CC(=O)N(c1ccccn1)[C@@H]1CCCC[C@H]1N1Cc2ccc(-c3nnc(C(F)F)o3)cc2C1=O` [Example 264, N-((1R,2R)-2-(6-(5-(difluoromethyl)-1,3,4-oxadiazol-2-yl)-1-oxo-1,3-dihydro-2H-isoindol-2-yl)cyclohexyl)-N-(pyridin-2-yl) acetamide] stands 101%; under `O=C1c2cc(-c3nnc(C(F)F)o3)cc(F)c2CN1C[C@H]1COCCN1S(=O)(=O)c1cccc(F)c1` [Example 265, 6-(5-(difluoromethyl)-1,3,4-oxadiazol-2-yl)-4-fluoro-2-(((3S)-4-((3-fluorophenyl)-sulfonyl)morpholin-3-yl)-methyl)isoindolin-1-one], 98%; under `COc1cccc(CN2Cc3ncc(-c4nnc(C(F)F)o4)cc3C2=O)c1` [Example 266, 3-(5-(difluoromethyl)-1,3,4-oxadiazol-2-yl)-6-(3-methoxybenzyl)-6,7-dihydro-5H-pyrrolo[3,4-b]-pyridin-5-one], 99%.
Take `N#Cc1cccc(-c2ccc(Cl)cc2N2Cc3ccc(-c4nnc(C(F)F)o4)cc3C2=O)c1` [Example 267, 4′-chloro-2′-(6-(5-(difluoro-methyl)-1,3,4-oxadiazol-2-yl)-1-oxo-1,3-dihydro-2H-isoindol-2-yl)biphenyl-3-carbonitrile]: the inhibition at 10 µM came out at 100%.
As to `CC(C)(OC(=O)N[C@@H]1CCCC[C@H]1N1Cc2ncc(-c3nnc(C(F)F)o3)cc2C1=O)C(F)(F)F` [Example 268, 1,1,1-trifluoro-2-methylpropan-2-yl ((1R,2R)-2-(3-(5-(difluoromethyl)-1,3,4-oxadiazol-2-yl)-5-oxo-5,7-dihydro-6H-pyrrolo[3,4-b]pyridin-6-yl)cyclohexyl)carbamate], the inhibition at 10 µM was 100%.
`O=C1CCCN1CC(c1ccccc1)N1Cc2ncc(-c3nnc(C(F)F)o3)cc2C1=O` (centres unmarked) [Example 269, 3-(5-(difluoromethyl)-1,3,4-oxadiazol-2-yl)-6-(2-(2-oxopyrrolidin-1-yl)-1-phenylethyl)-6,7-dihydro-5H-pyrrolo[3,4-b]pyridin-5-one]: the inhibition at 10 µM is 99%.
Next, `Cn1cc(-c2cc(Cl)ccc2N2Cc3ccc(-c4nnc(C(F)F)o4)cc3C2=O)cn1` [Example 270, 2-(4-chloro-2-(1-methyl-1H-pyrazol-4-yl)phenyl)-6-(5-(difluoromethyl)-1,3,4-oxadiazol-2-yl)-isoindolin-1-one]: 99%; `Cn1cc(-c2cc(F)ccc2N2Cc3ccc(-c4nnc(C(F)F)o4)cc3C2=O)cn1` [Example 271, 6-(5-(difluoromethyl)-1,3,4-oxadiazol-2-yl)-2-(4-fluoro-2-(1-methyl-1H-pyrazol-4-yl)phenyl)isoindolin-1-one]: 100%.
Next, `COc1ccc(CN2Cc3ncc(-c4nnc(C(F)F)o4)cc3C2=O)c(OC)c1` [Example 272, 3-(5-(difluoromethyl)-1,3,4-oxadiazol-2-yl)-6-(2,4-dimethoxybenzyl)-6,7-dihydro-5H-pyrrolo-[3,4-b]pyridin-5-one]: 100%; `O=C1c2cc(-c3nnc(C(F)F)o3)cnc2CN1Cc1cccc(F)c1` [Example 273, 3-(5-(difluoromethyl)-1,3,4-oxadiazol-2-yl)-6-(3-fluorobenzyl)-6,7-dihydro-5H-pyrrolo[3,4-b]pyridin-5-one]: 97%.
Next, `O=C1c2cc(-c3nnc(C(F)F)o3)cc(F)c2CN1C[C@H]1CCCN1S(=O)(=O)C1CC1` [Example 274, 2-(((2R)-1-(cyclopropyl-sulfonyl)pyrrolidin-2-yl)methyl)-6-(5-(difluoro-methyl)-1,3,4-oxadiazol-2-yl)-4-fluoroisoindolin-1-one]: 99%.
In the case of `CC(C)(C)OC(=O)N1CCC[C@H]1CN1Cc2c(F)cc(-c3nnc(C(F)F)o3)cc2C1=O` [Example 275, tert-butyl (2S)-2-((6-(5-(difluoromethyl)-1,3,4-oxadiazol-2-yl)-4-fluoro-1-oxo-1,3-dihydro-2H-isoindol-2-yl)methyl)-pyrrolidine-1-carboxylate], the inhibition at 10 µM came out at 98%.
Next, `O=C1c2cc(-c3nnc(C(F)F)o3)ccc2CN1c1ccccc1-c1ccc(F)cc1` [Example 276, 6-(5-(difluoromethyl)-1,3,4-oxadiazol-2-yl)-2-(4′-fluorobiphenyl-2-yl)-isoindolin-1-one]: 98%; `O=C1c2cc(-c3nnc(C(F)F)o3)ccc2CN1c1ccccc1-c1ccccc1F` [Example 277, 6-(5-(difluoromethyl)-1,3,4-oxadiazol-2-yl)-2-(2'-fluorobiphenyl-2-yl)isoindolin-1-one]: 97%.
Next, `O=C1c2cc(-c3nnc(C(F)F)o3)ccc2CN1c1ccccc1-c1cccc(F)c1` [Example 278, 6-(5-(difluoromethyl)-1,3,4-oxadiazol-2-yl)-2-(3′-fluorobiphenyl-2-yl)-isoindolin-1-one]: 99%; `N#Cc1ccc(-c2ccccc2N2Cc3ccc(-c4nnc(C(F)F)o4)cc3C2=O)cc1` [Example 279, 2′-(6-(5-(difluoromethyl)-1,3,4-oxadiazol-2-yl)-1-oxo-1,3-dihydro-2H-isoindol-2-yl)-biphenyl-4-carbonitrile]: 89%.
For `CCc1ncccc1-c1ccccc1N1Cc2ccc(-c3nnc(C(F)F)o3)cc2C1=O` [Example 280, 6-(5-(difluoromethyl)-1,3,4-oxadiazol-2-yl)-2-(2-(2-ethylpyridin-3-yl)phenyl)-isoindolin-1-one], the inhibition at 10 µM stood at 99%.
Next, `O=C1c2cc(-c3nnc(C(F)F)o3)ccc2CN1c1ccccc1-c1ccccc1Cl` [Example 281, 2-(2′-chlorobiphenyl-2-yl)-6-(5-(difluoromethyl)-1,3,4-oxadiazol-2-yl)isoindolin-1-one]: 98%; `O=C1c2cc(-c3nnc(C(F)F)o3)ccc2CN1c1ccccc1-c1ccc(Cl)cc1` [Example 282, 2-(4′-chlorobiphenyl-2-yl)-6-(5-(difluoromethyl)-1,3,4-oxadiazol-2-yl)isoindolin-1-one]: 98%.
Under `O=C1c2cc(-c3nnc(C(F)F)o3)ccc2CN1c1ccccc1-c1cccc(Cl)c1` [Example 283, 2-(3′-chlorobiphenyl-2-yl)-6-(5-(difluoromethyl)-1,3,4-oxadiazol-2-yl)isoindolin-1-one] stands 99%.
